Test results published in ChEMBL document CHEMBL3880418, “Pyripyropene derivative having ACAT2 inhibiting activity and stable to metabolizing enzymes” (2013).

Assays:
[1] = Half life in Sprague-Dawley rat liver microsomes at 6 ug/ml by HPLC method; format: ADME
[2] = target: T1, Sterol O-acyltransferase 2 (Mus musculus) (UniProt O88908); assay: Ratio of compound IC50 to PRD 043 IC50 for ACAT2 in mouse hepatic microsomal membranes; format: cell membranes; conditions: Liver, Microsomal Membrane
T1 sequence (whole entry): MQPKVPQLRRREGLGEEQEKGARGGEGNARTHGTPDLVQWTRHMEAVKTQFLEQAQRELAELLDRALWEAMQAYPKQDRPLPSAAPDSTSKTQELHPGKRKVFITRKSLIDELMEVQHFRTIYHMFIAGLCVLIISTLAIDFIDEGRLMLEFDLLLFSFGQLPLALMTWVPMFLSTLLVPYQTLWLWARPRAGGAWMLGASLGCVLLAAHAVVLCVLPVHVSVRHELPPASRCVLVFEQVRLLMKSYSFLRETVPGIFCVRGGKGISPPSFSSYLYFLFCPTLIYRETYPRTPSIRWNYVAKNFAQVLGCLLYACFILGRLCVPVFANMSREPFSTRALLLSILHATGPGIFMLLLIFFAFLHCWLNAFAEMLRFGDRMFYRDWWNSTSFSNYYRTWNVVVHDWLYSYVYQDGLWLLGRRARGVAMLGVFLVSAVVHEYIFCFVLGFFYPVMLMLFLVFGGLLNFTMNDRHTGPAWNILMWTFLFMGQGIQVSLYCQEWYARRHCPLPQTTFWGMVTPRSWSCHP

Row | SMILES | half-life at 6 ug/ml [1] [h] | Ratio IC50 [2]
1 | CC(=O)O[C@H]1CC[C@@]2(C)[C@@H](C[C@H](OC(=O)c3ccc(C#N)cc3)[C@@]3(C)Oc4cc(-c5cccnc5)oc(=O)c4[C@H](O)[C@H]23)[C@]1(C)COC(=O)c1ccccc1 | > 9 | < 20
2 | COc1ccc(C(OC)O[C@H]2C[C@H]3[C@]4(C)CO[C@@H](c5ccccc5)O[C@H]4CC[C@]3(C)[C@H]3[C@@H](O)c4c(cc(-c5cccnc5)oc4=O)O[C@]23C)cc1 (stereo not given in full) | > 9 | < 20
3 | C[C@@]12CO[C@@H](c3ccccc3)O[C@H]1CC[C@@]1(C)[C@H]2C[C@H](OC(=O)c2ccccc2)[C@@]2(C)Oc3cc(-c4cccnc4)oc(=O)c3[C@H](O)[C@H]12 | > 9 | < 20
4 | C[C@]1(COC(=O)c2ccccc2)[C@@H]2C[C@H](OC(=O)c3ccc(C#N)cc3)[C@@]3(C)Oc4cc(-c5cccnc5)oc(=O)c4[C@H](O)[C@@H]3[C@@]2(C)CC[C@@H]1OC(=O)c1ccccc1 | > 9 | < 20
5 | COc1ccccc1[C@@H]1OC[C@@]2(C)[C@@H]3C[C@H](OC(=O)c4ccc(C#N)cc4)[C@@]4(C)Oc5cc(-c6cccnc6)oc(=O)c5[C@H](O)[C@@H]4[C@@]3(C)CC[C@@H]2O1 | > 9 | < 20
6 | CN(C)c1ccc([C@@H]2OC[C@@]3(C)[C@@H]4C[C@H](OC(=O)c5ccc(C#N)cc5)[C@@]5(C)Oc6cc(-c7cccnc7)oc(=O)c6[C@H](O)[C@@H]5[C@@]4(C)CC[C@@H]3O2)cc1 | > 9 | < 20
7 | Cc1cccc([C@@H]2OC[C@@]3(C)[C@@H]4C[C@H](OC(=O)c5ccc(F)cc5)[C@@]5(C)Oc6cc(-c7cccnc7)oc(=O)c6[C@H](O)[C@@H]5[C@@]4(C)CC[C@@H]3O2)c1 | > 9 | < 20
8 | CC(=O)OC[C@@]1(C)[C@@H]2C[C@H](OC(=O)c3ccc(C#N)cc3)[C@@]3(C)Oc4cc(-c5cccnc5)oc(=O)c4[C@H](O)[C@@H]3[C@@]2(C)CC[C@@H]1OC(=O)c1ccccc1 | > 9 | < 20
9 | Cc1ccc([C@@H]2OC[C@@]3(C)[C@@H]4C[C@H](OC(=O)c5ccc(F)cc5)[C@@]5(C)Oc6cc(-c7cccnc7)oc(=O)c6[C@H](O)[C@@H]5[C@@]4(C)CC[C@@H]3O2)cc1 | > 9 | < 20
10 | CC(=O)OC[C@@]1(C)[C@@H]2C[C@H](OC(=O)c3ccc(C#N)cc3)[C@@]3(C)Oc4cc(-c5cccnc5)oc(=O)c4[C@H](O)[C@@H]3[C@@]2(C)CC[C@@H]1OC(=O)C(C)C | > 9 | < 20
11 | CC(=O)OCC1(C)[C@@H](OC(C)=O)CC[C@]2(C)[C@H]3[C@@H](O)c4c(cc(-c5cccnc5)oc4=O)O[C@]3(C)[C@@H](OC(=O)C3CCCCC3)C[C@@H]12 (single isomer, unassigned) | < 1 | 
12 | CC(=O)OCC1(C)[C@@H](OC(C)=O)CC[C@]2(C)[C@H]3[C@@H](O)c4c(cc(-c5cccnc5)oc4=O)O[C@]3(C)[C@@H](OC(=O)c3cccc(Br)c3)C[C@@H]12 (single isomer, unassigned) | < 1 | 
13 | COc1cccc(C(=O)O[C@H]2C[C@H]3C(C)(COC(C)=O)[C@@H](OC(C)=O)CC[C@]3(C)[C@H]3[C@@H](O)c4c(cc(-c5cccnc5)oc4=O)O[C@]23C)c1 (single isomer, unassigned) | > 9 | < 5
14 | Cc1cccc([C@@H]2OC[C@@]3(C)[C@@H]4C[C@H](OC(=O)c5ccc(C#N)cc5)[C@@]5(C)Oc6cc(-c7cccnc7)oc(=O)c6[C@H](O)[C@@H]5[C@@]4(C)CC[C@@H]3O2)c1 |  | < 20
15 | CCCCCC(=O)OC[C@@]1(C)[C@@H]2C[C@H](OC(=O)c3ccc(C#N)cc3)[C@@]3(C)Oc4cc(-c5cccnc5)oc(=O)c4[C@H](O)[C@@H]3[C@@]2(C)CC[C@@H]1OC(=O)CCCCC | > 9 | < 20
16 | Cc1ccc([C@@H]2OC[C@@]3(C)[C@@H]4C[C@H](OC(=O)c5ccc(F)cc5)[C@@]5(C)Oc6cc(-c7cccnc7)oc(=O)c6[C@H](O)[C@@H]5[C@@]4(C)CC[C@@H]3O2)c(C)c1 | > 9 | < 20
17 | CC(=O)OCC1(C)[C@@H](OC(C)=O)CC[C@]2(C)[C@H]3[C@@H](O)c4c(cc(-c5cccnc5)oc4=O)O[C@]3(C)[C@@H](OC(=O)c3ccccc3F)C[C@@H]12 (single isomer, unassigned) | < 1 | 
18 | Cc1ccc([C@@H]2OC[C@@]3(C)[C@@H]4C[C@H](OC(=O)c5ccc(C#N)cc5)[C@@]5(C)Oc6cc(-c7cccnc7)oc(=O)c6[C@H](O)[C@@H]5[C@@]4(C)CC[C@@H]3O2)c(C)c1 | > 9 | < 20

Row | SMILES | half-life at 6 ug/ml [1] [h] | Ratio IC50 [2]
19 | C[C@@]12CO[C@@H](c3ccccc3F)O[C@H]1CC[C@@]1(C)[C@H]2C[C@H](OC(=O)c2ccc(C#N)cc2)[C@@]2(C)Oc3cc(-c4cccnc4)oc(=O)c3[C@H](O)[C@H]12 | > 9 | < 20
20 | CC(=O)O[C@H]1C[C@H]2[C@](C)(COC(=O)C(C)C)[C@@H](OC(=O)C(C)C)CC[C@]2(C)[C@H]2[C@@H](O)c3c(cc(-c4cccnc4)oc3=O)O[C@]12C | > 9 | < 20
21 | C[C@@]12CO[C@@H](c3ccccc3F)O[C@H]1CC[C@@]1(C)[C@H]2C[C@H](OC(=O)c2ccc(F)cc2)[C@@]2(C)Oc3cc(-c4cccnc4)oc(=O)c3[C@H](O)[C@H]12 | > 9 | < 20
22 | C[C@@]12CO[C@@H](c3ccccc3)O[C@H]1CC[C@@]1(C)[C@H]2C[C@H](OC(=O)C2CCCCC2)[C@@]2(C)Oc3cc(-c4cccnc4)oc(=O)c3[C@H](O)[C@H]12 | > 9 | < 20
23 | Cc1ccccc1[C@@H]1OC[C@@]2(C)[C@@H]3C[C@H](OC(=O)c4ccc(C#N)cc4)[C@@]4(C)Oc5cc(-c6cccnc6)oc(=O)c5[C@H](O)[C@@H]4[C@@]3(C)CC[C@@H]2O1 | > 9 | < 20
24 | CC(=O)O[C@H]1CC[C@@]2(C)[C@@H](C[C@H](OC(C)=O)[C@@]3(C)Oc4cc(-c5cccnc5)oc(=O)c4[C@H](O)[C@H]23)[C@]1(C)COC(=O)c1ccccc1 | > 9 | < 20
25 | CC(C)C(=O)OC[C@@]1(C)[C@@H]2C[C@H](OC(=O)c3ccc([N+](=O)[O-])cc3)[C@@]3(C)Oc4cc(-c5cccnc5)oc(=O)c4[C@H](O)[C@@H]3[C@@]2(C)CC[C@@H]1OC(=O)C(C)C | > 9 | < 20
26 | COc1ccc(CNC(=O)[C@@]2(C)[C@@H](OC(C)=O)CC[C@]3(C)[C@H]4[C@@H](O)c5c(cc(-c6cccnc6)oc5=O)O[C@]4(C)[C@@H](OC(=O)c4ccc(C#N)cc4)C[C@H]32)c(OC)c1 | > 9 | < 20
27 | Cc1ccc([C@@H]2OC[C@@]3(C)[C@@H]4C[C@H](OC(=O)c5ccc(C#N)cc5)[C@@]5(C)Oc6cc(-c7cccnc7)oc(=O)c6[C@H](O)[C@@H]5[C@@]4(C)CC[C@@H]3O2)cc1 | > 9 | < 20
28 | Cc1ccccc1[C@@H]1OC[C@@]2(C)[C@@H]3C[C@H](OC(=O)c4ccc(F)cc4)[C@@]4(C)Oc5cc(-c6cccnc6)oc(=O)c5[C@H](O)[C@@H]4[C@@]3(C)CC[C@@H]2O1 | > 9 | < 20
29 | CC(=O)O[C@H]1C[C@H]2[C@]3(C)CO[C@@H](c4ccccc4)O[C@H]3CC[C@]2(C)[C@H]2[C@@H](O)c3c(cc(-c4cccnc4)oc3=O)O[C@]12C | > 9 | < 20
30 | CC(C)C(=O)OC[C@@]1(C)[C@@H]2C[C@H](OC(=O)C3CCCCC3)[C@@]3(C)Oc4cc(-c5cccnc5)oc(=O)c4[C@H](O)[C@@H]3[C@@]2(C)CC[C@@H]1OC(=O)C(C)C | > 9 | < 20
31 | COC(=O)[C@@]1(C)[C@@H](OC(C)=O)CC[C@]2(C)[C@H]3[C@@H](O)c4c(cc(-c5cccnc5)oc4=O)O[C@]3(C)[C@@H](OC(=O)c3ccc(C#N)cc3)C[C@H]21 | > 9 | < 20
32 | CC(=O)OCC1(C)[C@@H](OC(C)=O)CC[C@]2(C)[C@H]3[C@@H](O)c4c(cc(-c5cccnc5)oc4=O)O[C@]3(C)[C@@H](OC(=O)c3ccc(C)cc3)C[C@@H]12 (single isomer, unassigned) | < 1 | 
33 | CCc1ccc(C(=O)O[C@H]2C[C@H]3C(C)(COC(C)=O)[C@@H](OC(C)=O)CC[C@]3(C)[C@H]3[C@@H](O)c4c(cc(-c5cccnc5)oc4=O)O[C@]23C)cc1 (single isomer, unassigned) | < 1 | 
34 | CC(C)C(=O)OCC1(C)[C@@H](OC(=O)C(C)C)CC[C@]2(C)[C@H]3[C@@H](O)c4c(cc(-c5cccnc5)oc4=O)O[C@]3(C)[C@@H](OC(=O)c3ccc(C#N)cc3)C[C@@H]12 (single isomer, unassigned) | > 9 | < 1
35 | CC(=O)O[C@H]1CC[C@@]2(C)[C@@H](C[C@H](OC(=O)c3ccc(C#N)cc3)[C@@]3(C)Oc4cc(-c5cccnc5)oc(=O)c4[C@H](O)[C@H]23)[C@]1(C)COC(=O)C(C)C | > 9 | < 20
36 | CC(=O)OCC1(C)[C@@H](OC(C)=O)CC[C@]2(C)[C@H]3[C@@H](O)c4c(cc(-c5cccnc5)oc4=O)O[C@]3(C)[C@@H](OC(=O)c3ccccc3C)C[C@@H]12 (single isomer, unassigned) | < 1 | 
